# Measured values reported in patent US9538734B2, “Germ cell ablation compounds and uses thereof” (THE GENERAL HOSPITAL CORPORATION, priority 2013, dated 2017).
# Tests used:
# zebrafish embryos [1] = assay: Sex of adults after embryonic treatment; format: in vivo; settings: embryos treated during early development
# dCTPP1 = target: T1, dCTPP1 (Homo sapiens, UniProt Q9H773); assay: Western blot confirmation of binding to primordazine beads
# T1 sequence (Q9H773 1-170): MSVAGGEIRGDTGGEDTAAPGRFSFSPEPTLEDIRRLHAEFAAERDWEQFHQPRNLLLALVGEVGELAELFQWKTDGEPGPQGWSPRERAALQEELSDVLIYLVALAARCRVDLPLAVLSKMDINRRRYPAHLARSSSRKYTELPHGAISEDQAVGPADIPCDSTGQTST
# pgam5 = target: T2, pgam5 (Homo sapiens, UniProt Q96HS1); assay: Western blot confirmation of binding to primordazine
# T2 sequence (Q96HS1 1-289): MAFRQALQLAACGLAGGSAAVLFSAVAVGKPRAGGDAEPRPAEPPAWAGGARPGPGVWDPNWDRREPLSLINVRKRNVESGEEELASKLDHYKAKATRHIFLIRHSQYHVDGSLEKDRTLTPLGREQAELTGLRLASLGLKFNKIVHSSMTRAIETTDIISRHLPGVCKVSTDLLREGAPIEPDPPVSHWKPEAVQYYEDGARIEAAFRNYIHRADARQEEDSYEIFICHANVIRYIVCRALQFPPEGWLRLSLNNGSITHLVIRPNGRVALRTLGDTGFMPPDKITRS
# deadend 3′UTR = assay: Translation of GFP message tagged with fragments of the deadend 3′UTR; settings: in vivo
# Description: FIG. 26 illustrates that, in addition to regulating the translation of proteins containing elements from the nanos1 3′ UTR, primordazine blocks translation of proteins from mRNAs containing the deadend 3′UTR.
# PRE-containing mRNAs = assay: Translation of GFP mRNA tagged with nanos1 3′UTR in mammalian cell lines (western blotting); format: cell-based; settings: GFP mRNA tagged with 120 bases from nanos1 3′UTR, transfected mammalian cell lines
# Experimental: GFP mRNA was tagged with 120 bases from the nanos1 3′UTR and transfected into various mammalian cell lines. The effect of primordazine was determined by western blotting.
# GFP labeled PGCs = assay: Count of GFP labeled PGCs in tilapia embryos exposed to primordazine; format: in vivo, Tilapia (Oreochromis niloticus); settings: for reduction in PGCs number: 5 uM; for GFP labeled cells in midline trunk region: 1 cell stage embryos, 3 day old; for reduction in PGCs number compared to control: after 3 days, 28° C.
# Experimental: Tilapia (Oreochromis niloticus) lines used in this study are derived from a Brazilian strain obtained from a US commercial producer. To study PGCs, assays were performed on embryos from female tilapia carrying the Zpc5:eGFP:tnos 3′UTR construct which produce embryos with GFP labeled PGCs. The tilapia Zpc5 promoter is an oocyte specific promoter, active during oogenesis prior to the first meiotic division. As such, all embryos from an heterozygous transgenic female inherit the eGFP:tnos 3′UTR mRNA, which localizes and become expressed exclusively in PGCs through the action of cis-acting RNA element in their 3′UTR (tilapia nanos 3′UTR). In this system GFP expression in the embryo is strictly maternal. Thus, similarly to zebrafish nos1 3′UTR, tilapia nanos 3′ UTR (tnos 3′UTR) can deliver mRNA and subsequently heterologous protein expression to the PGCs in developing embryos. In this line, GFP expression is first observed in 2 day old embryos, progeny of transgenic female. At 3 days post fertilization (dpf) in 28° C. water, GFP-expressing cells coalesced in two bilateral rows on the midline above the intestine (FIG. 41A). The GFP labeled primordial germ cell can be visualized for up to 6 days post fertilization but fluorescence starts to fade between days 4 & 5. Primordazine treatment: Embryos at different developmental stages were placed into hatching water at 28° C. in plastic Petri dishes with gentle stirring. The first cell division takes place approximately two hours post fertilization (hpf) and gastrulation begins at around 10 hpf. We transferred pre-gastrula (2 hpf, 5 hpf) and post-gastrula embryos (15 hpf) to 96 well plates (1-2 embryos/well) prefilled with hatching water supplemented with 2 fold dilution series of primordazine from 20 uM to 2.5 uM or DMSO (control). The 96 well plate was placed under gentle stirring in a temperature control room at 28° C. At time intervals, embryos were analyzed for GFP expression under a fluorescence dissecting microscope (Zeiss Stereo Discovery.V8) equipped with a GFP filter set. To quantify primordazine activity, 3 day old embryos were placed in fresh water and PGCs were counted. At this stage, in the non-treated control group, approximately 95% of PGCs have migrated to the genital ridges.
# zebrafish embryos [2] = assay: Observable effects on embryonic development, apoptosis; format: in vivo
# Experimental: (§1) In an effort to discover pathways essential for PGC maintenance, a small molecule screen for compounds that promote disappearance of PGCs was performed. The screen was performed with transgenic zebrafish embryos that express GFP exclusively in PGCs. Of 7,000 small molecules screened, three caused disappearance of PGCs without causing other observable changes in embryonic development. The three PGC-ablating compounds were close structural analogs of each other, and the representative compound from this class was named primordazine (FIG. 1A). […] PGC loss was confirmed by multiple PGC lineage markers (FIG. 1B).
# nanos1 mRNA = nanos1 mRNA level (quantitative PCR) and localization (fluorescent in situ hybridization, confocal microscopy); format: in vivo, zebrafish
# Description: Therefore, mRNA destabilization is not the mechanism by which primordazine blocks nanos1 expression. Next, fluorescent in situ hybridization and confocal microscopy were used to examine the localization of nanos1 mRNA within germ cells.
# DHX9 = assay: Primordazine affinity matrix pull-down with iTRAQ; format: binding; settings: whole zebrafish lysates, with and without competition from free primordazine
# Experimental: A primordazine derivative was synthesized in which an 8-atom linker was appended from the indole nitrogen, terminating in a carboxylic acid (FIG. 4B). […] The derivatized primordazine was then coupled to Affi-Gel 102 agarose beads, generating an affinity matrix (FIG. 4C). The affinity matrix was incubated with whole zebrafish lysates with and without competition from free primordazine, and iTRAQ was used to identify any primordazine-binding proteins. An RNA helicase, DHX9, was identified as binding specifically to the affinity matrix, along with two RNA-binding adapter proteins HNRNPH1 and HNRNPA2B1.
# [3] = tested on: primordazine response element (PRE) of nanos1 3′ UTR; assay: Translation of injected GFP reporter RNA fused to nanos1 3′ UTR / PRE; format: in vivo, zebrafish; settings: for translation of EGFP: EGFP mRNA fused to 120 bases of nanos1 3′UTR
# Description: During the process of confirming PGC loss in primordazine-treated embryos, it was discovered that GFP translation was highly sensitive to primordazine treatment when fused to the 3′ UTR of the nanos1 gene, but not when fused to other 3′ UTRs. The 3′ UTR of the nanos1 gene was examined for elements capable of conferring primordazine sensitivity. […] This sequence is called the Primordazine Response Element (PRE). […] When other sequences from the nanos1 3′ UTR are used, primordazine has no effect on GFP expression.
# mRNA translation is tested using the same GFP reporter depicted in FIG. 2. This reporter consists of GFP mRNA fused to the nanos1 3′ UTR with a mutant miR-430 site. When injected into one-cell stage zebrafish, GFP is expressed in both germ and somatic cells (Giraldez, A. J. et al. Zebrafish MiR-430 promotes deadenylation and clearance of maternal mRNAs. Science 312, 75-79 (2006); Mishima, Y. et al. Differential regulation of germline mRNAs in soma and germ cells by zebrafish miR-430. Curr Biol 16, 2135-2142 (2006)). […] As such, the quantity of mRNA is increased as detected by qPCR, but the quantity of GFP protein diminishes, as determined by quantitative fluorescence microscopy (see FIG. 2 for an example). Mutant animals were injected with the GFP reporter mRNA and quantify the amount of mRNA and protein present at 11 and 24 hours. Attention was paid to the effects of the mutations on baseline translation of GFP and also for effects of the mutations on responsiveness to primordazine.
# [4] = tested on: primordial germ cells (PGCs); assay: PGC ablation in transgenic zebrafish embryos expressing GFP in PGCs (small molecule screen); format: in vivo
# Experimental: as §1
# Optimization is driven primarily by potency, meaning that each compound acquired is tested for potency, and potency changes influence subsequent rounds of compound design. For testing compounds, 3-5 transgenic zebrafish embryos (expressing GFP from the vasa promoter) are placed in each well of clear-bottom, black-wall 96 well plates. Embryos are treated with DMSO or varying doses of a compound in two-fold dilutions from 8 uM to 16 nM, beginning at 2 h postfertilization. At 24 h, the plate is loaded onto the screening microscope, which systematically scans wells and captures fluorescent images of fish in each well. The efficacy of each compound dose in ablating PGCs is recorded, yielding an EC50 for each compound.
structure (smiles),measurement,setting,value
CCC(Sc1nnc2c3ccccc3n(CC)c2n1)C(=O)Nc1cccc(C(C)=O)c1 (centres unmarked) [primordazine],sex when adult,zebrafish embryos [1],tend to be males
same,binding of dCTPP1,dCTPP1,bind
same,binding of pgam5,pgam5,bind
same,translation of EGFP from mRNAs containing the deadend 3′UTR,deadend 3′UTR,blocks the translation
same,translation of PRE-containing mRNAs,PRE-containing mRNAs,inhibits translation
same,reduction in PGCs number,GFP labeled PGCs; later time point (13 hour old embryos),41%
same,reduction in PGCs number,GFP labeled PGCs; treatment begins at 2 hpf,72%
same,GFP labeled cells in midline trunk region,GFP labeled PGCs; 10 uM,marked reduction in number
same,reduction in PGCs number compared to control,"GFP labeled PGCs; 10 uM, 5 hours old embryos",47%
same,GFP labeled cells in midline trunk region,GFP labeled PGCs; 20 uM,complete disappearance
same,reduction in PGCs number compared to control,"GFP labeled PGCs; 20 uM, 5 hours old embryos",67%
same,level of GFP intensity in PGCs,GFP labeled PGCs; 5 hours old embryos,reduced
same,apoptosis,zebrafish embryos [2]; FIG. 12,does not cause apoptosis
same,effect on development or organogenesis,zebrafish embryos [2]; effective doses,no visible effect
same,localization of nanos1 mRNA within germ cells,"nanos1 mRNA; fluorescent in situ hybridization, confocal microscopy",became localized to discrete puncta
same,nanos1 mRNA levels,nanos1 mRNA; quantitative PCR,no decrease
same,binding of DHX9,DHX9,Binds
same,translation of EGFP,[3]; absence of polyadenylation,effectively blocked translation
same,translation of EGFP,[3]; polyadenylated in vitro prior to injection,failed to block translation
same,translation of GFP protein,[3]; GFP mRNA followed by the nanos1 3′ UTR,prevents its translation
same,stability of GFP reporter mRNA,[3]; GFP mRNA with nanos1 3′ UTR,stabilizes the mRNA
same,translation of GFP RNA,"[3]; PRE placed in its 3′ UTR, RNA injected into zebrafish",blocked
same,GFP expression,[3]; other sequences from the nanos1 3′ UTR,no effect
same,concentration for maximal efficacy of germ cell ablation,[4]; egg / hatching water concentration,6 µM
same,PGC-ablating activity,"[4]; zebrafish embryos, GFP in PGCs",ablates PGCs in a dose-dependent manner
same,effective concentration in zebrafish embryos,"[4]; zebrafish, in vivo",high nanomolar to low micromolar
